Where a name gives a salt, the structure may show the parent alone.

One assay relates to Acinetobacter baumannii ATCC17961. Kind of assay: Antimicrobial susceptibility testing: 90% growth inhibitory concentration (IC90) determination, Iso-Sensitest broth. The settings on record: 90% growth inhibitory concentration, Acinetobacter baumannii ATCC17961, Iso-Sensitest broth; formate; read-out: ATCC 17961 IC90. In kind it is cell-based. In a few lines: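 Twofold serial dilutions (e.g. 10 to 0.02 μM final) were tested in Iso-Sensitest broth against ~5×10^(5) CFU/ml at 35±2 °C. OD600 was read every 20 min over 16 h. IC90 was derived from growth inhibition during the logarithmic phase.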
For `COc1ccc(-c2cnc(C(=O)Nc3ccc(C(=O)N4CCN(C(=O)N[C@H]5CNC[C@@H]5O)CC4)c(Cl)c3)n2C)c(F)c1F` [Example 284, 4-[2-chloro-4-[[5-(2,3-difluoro-4-methoxy-phenyl)-1-methyl-imidazole-2-carbonyl]amino]benzoyl]-N-[(3S,4S)-4-hydroxypyrrolidin-3-yl]piperazine-1-carboxamide formate], the IC90 (in general, the concentration at which the effect reaches the 90% level) turned out to be 80 nM.

Staying with this assay, now noted: Acinetobacter baumannii, ATCC17961, 90% growth inhibitory concentration, Acinetobacter baumannii ATCC17961, Iso-Sensitest broth; read-out: ATCC 17961 IC90.
On to `Cn1c(-c2ccc(OCC#N)c(F)c2Cl)cnc1C(=O)Nc1ccc(C(=O)N2CCN(C(=O)[C@@H]3CCNC3)CC2)c(Cl)c1` [Example 254, 5-[2-chloro-4-(cyanomethoxy)-3-fluoro-phenyl]-N-[3-chloro-4-[4-[(3R)-pyrrolidine-3-carbonyl]piperazine-1-carbonyl]phenyl]-1-methyl-imidazole-2-carboxamide formate], for which the IC90 is 40 nM.
With `COCCOc1ccc(-c2cnc(C(=O)Nc3ccc(C(=O)N4CCN(C(=O)C5CCNCC5)CC4)c(Cl)c3)n2C)c(F)c1F` [Example 255, N-[3-chloro-4-[4-(piperidine-4-carbonyl)piperazine-1-carbonyl]phenyl]-5-[2,3-difluoro-4-(2-methoxyethoxy)phenyl]-1-methyl-imidazole-2-carboxamide formate], the IC90 was found to be 590 nM.
Take `Cn1c(-c2ccc(CC#N)cc2F)cnc1C(=O)Nc1ccc(C(=O)N2CCN(C(=O)C3CCNCC3)CC2)c(Cl)c1` [Example 256, N-[3-chloro-4-[4-(piperidine-4-carbonyl)piperazine-1-carbonyl]phenyl]-5-[4-(cyanomethyl)-2-fluoro-phenyl]-1-methyl-imidazole-2-carboxamide formate]: the IC90 turned out to be 8700 nM.
As to `COc1ccc(-c2cnc(C(=O)Nc3ccc(C(=O)N4CCN(C(=O)C5CCNCC5)CC4)c(Cl)c3)n2C)c(F)c1OC` [Example 257, N-[3-chloro-4-[4-(piperidine-4-carbonyl)piperazine-1-carbonyl]phenyl]-5-(2-fluoro-3,4-dimethoxy-phenyl)-1-methyl-imidazole-2-carboxamide formate], the IC90 was found to be 230 nM.
Same read-out and setting: with `COc1cc(-c2cnc(C(=O)Nc3ccc(C(=O)N4CCN(C(=O)C5CCNCC5)CC4)c(Cl)c3)n2C)cc(F)c1F` [Example 258, N-[3-chloro-4-[4-(piperidine-4-carbonyl)piperazine-1-carbonyl]phenyl]-5-(3,4-difluoro-5-methoxy-phenyl)-1-methyl-imidazole-2-carboxamide formate] the figure was 1120 nM.
In the case of `Cc1c(-c2cnc(C(=O)Nc3ccc(C(=O)N4CCN(C(=O)C[C@@H]5CCNC5)CC4)c(Cl)c3)n2C)ccc(OCF)c1F` [Example 259, N-[3-chloro-4-[4-[2-[(3S)-pyrrolidin-3-yl]acetyl]piperazine-1-carbonyl]phenyl]-5-[3-fluoro-4-(fluoromethoxy)-2-methyl-phenyl]-1-methyl-imidazole-2-carboxamide formate], the IC90 is 50 nM.
In the case of `COc1ccc(-c2cnc(C(=O)Nc3ccc(C(=O)N4CCN(C(=O)C[C@@H]5CCNC5)CC4)c(Cl)c3)n2C)c(C#N)c1F` [Example 260, N-[3-chloro-4-[4-[2-[(3S)-pyrrolidin-3-yl]acetyl]piperazine-1-carbonyl]phenyl]-5-(2-cyano-3-fluoro-4-methoxy-phenyl)-1-methyl-imidazole-2-carboxamide formate], the IC90 turned out to be 250 nM.
As to `COc1ccc(-c2cnc(C(=O)Nc3ccc(C(=O)N4CCN(C(=O)C[C@@H]5CCNC5)CC4)c(Cl)c3)n2C)c(C(F)F)c1F` [Example 261, N-[3-chloro-4-[4-[2-[(3S)-pyrrolidin-3-yl]acetyl]piperazine-1-carbonyl]phenyl]-5-[2-(difluoromethyl)-3-fluoro-4-methoxy-phenyl]-1-methyl-imidazole-2-carboxamide formate], the IC90 is 80 nM.
For `CN(C)c1ccc(-c2cnc(C(=O)Nc3ccc(C(=O)N4CCN(C(=O)C5CCNCC5)CC4)c(Cl)c3)n2C)c(F)c1F` [Example 262, N-[3-chloro-4-[4-(piperidine-4-carbonyl)piperazine-1-carbonyl]phenyl]-5-[4-(dimethylamino)-2,3-difluoro-phenyl]-1-methyl-imidazole-2-carboxamide formate], the IC90 turned out to be 70 nM.
For the compound `CN(C)C(=O)c1ccc(-c2cnc(C(=O)Nc3ccc(C(=O)N4CCN(C(=O)C5CCNCC5)CC4)c(Cl)c3)n2C)c(F)c1F` [Example 263, N-[3-chloro-4-[4-(piperidine-4-carbonyl)piperazine-1-carbonyl]phenyl]-5-[4-(dimethylcarbamoyl)-2,3-difluoro-phenyl]-1-methyl-imidazole-2-carboxamide formate], the IC90 worked out at 6060 nM.
With `COc1ccc(-c2cnc(C(=O)Nc3ccc(C(=O)N4CCN(C(=O)C5CCNCC5)CC4)c(Cl)c3)n2C)c(F)c1F` [Example 265, N-[3-chloro-4-[4-(piperidine-4-carbonyl)piperazine-1-carbonyl]phenyl]-5-(2,3-difluoro-4-methoxy-phenyl)-1-methyl-imidazole-2-carboxamide hydrochloride], the IC90 was 70 nM.
Same read-out and setting: under `Cn1c(-c2ccc(OCC#N)c(Cl)c2F)cnc1C(=O)Nc1ccc(C(=O)N2CCN(C(=O)C3CCNCC3)CC2)c(Cl)c1` [Example 268, 5-[3-chloro-4-(cyanomethoxy)-2-fluoro-phenyl]-N-[3-chloro-4-[4-(piperidine-4-carbonyl)piperazine-1-carbonyl]phenyl]-1-methyl-imidazole-2-carboxamide] stands 70 nM; under `CN(C)CCN1CCN(C(=O)c2ccc(NC(=O)c3ncc(-c4ccc(Oc5ccccn5)c(F)c4F)n3C)cc2Cl)CC1` [Example 271, N-[3-chloro-4-[4-[2-(dimethylamino)ethyl]piperazine-1-carbonyl]phenyl]-5-[2,3-difluoro-4-(2-pyridyloxy)phenyl]-1-methyl-imidazole-2-carboxamide trifluoroacetate], 640 nM.
In the case of `CN(C)CCN1CCN(C(=O)c2ccc(NC(=O)c3ncc(-c4ccc(Oc5ccncc5)c(F)c4F)n3C)cc2Cl)CC1` [Example 272, N-[3-chloro-4-[4-[2-(dimethylamino)ethyl]piperazine-1-carbonyl]phenyl]-5-[2,3-difluoro-4-(4-pyridyloxy)phenyl]-1-methyl-imidazole-2-carboxamide trifluoroacetate], the IC90 stood at 880 nM.
As for `CN(C)CCN1CCN(C(=O)c2ccc(NC(=O)c3ncc(-c4ccc(Oc5ncccn5)c(F)c4F)n3C)cc2Cl)CC1` [Example 273, N-[3-chloro-4-[4-[2-(dimethylamino)ethyl]piperazine-1-carbonyl]phenyl]-5-(2,3-difluoro-4-pyrimidin-2-yloxy-phenyl)-1-methyl-imidazole-2-carboxamide trifluoroacetate], the IC90 came out at 1300 nM.
As to `COc1ccc(-c2cnc(C(=O)Nc3ccc(C(=O)N4CCN(C(=O)CCOCCC(N)=O)CC4)c(Cl)c3)n2C)c(F)c1F` [Example 279, N-(4-(4-(3-(3-Amino-3-oxopropoxy)propanoyl)piperazine-1-carbonyl)-3-chlorophenyl)-5-(2,3-difluoro-4-methoxyphenyl)-1-methyl-1H-imidazole-2-carboxamide], the IC90 was 150 nM.
As for `COc1ccc(-c2cnc(C(=O)Nc3ccc(C(=O)N4CCN(C(=O)C5CC(C(N)=O)C5)CC4)c(Cl)c3)n2C)c(F)c1F` (stereo not drawn) [Example 280, N-(4-(4-(3-carbamoylcyclobutane-1-carbonyl)piperazine-1-carbonyl)-3-chlorophenyl)-5-(2,3-difluoro-4-methoxyphenyl)-1-methyl-1H-imidazole-2-carboxamide], the IC90 came out at 100 nM.
Take `Cn1c(-c2ccc(OCC#N)c(F)c2F)cnc1C(=O)Nc1ccc(C(=O)N2CCN(C(=O)N[C@H]3CNC[C@@H]3O)CC2)c(Cl)c1` [Example 282]: the IC90 came out at 60 nM.
With `COc1ccc(-c2cnc(C(=O)Nc3ccc(C(=O)N4CCN(C(=O)N[C@H]5CNC[C@@H]5O)CC4)c(Cl)c3)n2C)c(F)c1F` [Example 283, 4-[2-chloro-4-[[5-(2,3-difluoro-4-methoxy-phenyl)-1-methyl-imidazole-2-carbonyl]ami-no]benzoyl]-N-[(3R,4R)-4-hydroxypyrrolidin-3-yl]piperazine-1-carboxamide formate], the IC90 was 40 nM.
As for `COc1ccc(-c2cnc(C(=O)Nc3ccc(C(=O)N4CCN(C(=O)N[C@H]5CNC[C@@H]5O)CC4)c(C)c3)n2C)c(F)c1F` [Example 285, 4-[4-[[5-(2,3-difluoro-4-methoxy-phenyl)-1-methyl-imidazole-2-carbonyl]amino]-2-methyl-benzoyl]-N-[(3S,4S)-4-hydroxypyrrolidin-3-yl]piperazine-1-carboxamide formate], the IC90 is 100 nM.
Regarding `C#CCNCCCNC(=O)C1CCN(C(=O)c2ccc(NC(=O)c3ncc(-c4ccc(OC)c(F)c4F)n3C)cc2CC)CC1` [Example 286, 1-[4-[[5-(2,3-difluoro-4-methoxy-phenyl)-1-methyl-imidazole-2-carbonyl]amino]-2-ethyl-benzoyl]-N-[3-(prop-2-ynylamino)propyl]piper-idine-4-carboxamide], the IC90 stood at 180 nM.

Still in this assay, the particulars now being: Acinetobacter baumannii, ATCC17961, read-out: ATCC 17961 IC90.
As to `Cn1c(-c2ccc(OCC#N)c(F)c2F)cnc1C(=O)Nc1ccc(C(=O)N2CCN(C(=O)NCCN)CC2)c(Cl)c1` [Example 281, N-(2-Aminoethyl)-4-(2-chloro-4-(5-(4-(cyanomethoxy)-2,3-difluorophenyl)-1-methyl-1H-imidazole-2-carboxamido)benzoyl)piperazine-1-carboxamide 2,2,2-trifluoroacetate], the IC90 is 60 nM.
`Cn1c(-c2ccc(OCC#N)c(F)c2F)cnc1C(=O)Nc1ccc(C(=O)N2CCN(CCNCC(N)=O)CC2)c(Cl)c1` [Example 287, N-[4-[4-[2-[(2-amino-2-oxoethyl)amino]ethyl]piper-azine-1-carbonyl]-3-chloro-phenyl]-5-[4-(cyanomethoxy)-2,3-difluoro-phenyl]-1-methyl-imidazole-2-carboxamide formate]: the IC90 was found to be 140 nM.
